Experimental data as given in the supplement of paper PMC10883282.

How the values were obtained:
Experiment in all cases: relative viability vs DMSO control (72 h) (fraction); higher = more viable cells
KHOS-240S = tested on: KHOS-240S
Summary of the method: (§1)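 Sarcoma cell lines were seeded in 384-well plates at densities set to reach 80–90% confluence. After 24 h, 2.5 µl of serially diluted compound was added (source plates 10 mM to 0.0002 mM), and plates were held 72 h at 37 °C, 5% CO2, with 0.1% DMSO vehicle and a 5 µM positive control. Relative viability came from ATPLite readings as percent growth, averaged over up to triplicate wells. Data were rescaled so full viability equals 1 and none equals 0.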

RD-ES = tested on: RD-ES
Summary of the method: as §1

SW684 = tested on: SW684
Summary of the method: as §1

SYO-1 = tested on: SYO-1
Summary of the method: as §1

G401 = tested on: G401
Summary of the method: as §1

SW872 = tested on: SW872
Summary of the method: as §1

C=CC(=O)Nc1cccc(Nc2nc(Nc3ccc(N4CCN(C(C)=O)CC4)cc3OC)ncc2C(F)(F)F)c1 [Rociletinib]
relative viability
Settings | G401 | KHOS-240S | RD-ES | SW684 | SW872 | SYO-1
0.00017 µM | 1.04 | 1.08 | 0.965 | 1.13 | 1.1 | 0.99
0.00051 µM | 1.07 | 1.06 | 0.962 | 1.16 | 1.08 | 0.983
0.00152 µM | 1.04 | 1.07 | 0.961 | 1.16 | 1.07 | 0.949
0.00457 µM | 1.05 | 1.07 | 0.979 | 1.17 | 1.07 | 0.93
0.01372 µM | 1.04 | 1.07 | 0.967 | 1.18 | 1.05 | 0.893
0.04115 µM | 1.02 | 1.03 | 1 | 1.18 | 1.048 | 0.903
0.1235 µM | 1.05 | 1.08 | 0.937 | 1.14 | 1.04 | 0.872
0.3704 µM | 1.02 | 1.02 | 0.889 | 1.1 | 1.01 | 0.867
1.111 µM | 0.827 | 0.928 | 0.673 | 1.004 | 0.89 | 0.749
3.333 µM | 0.54 | 0.774 | 0.453 | 0.908 | 0.713 | 0.459
10 µM | 0.211 | 0.491 | 0.125 | 0.666 | 0.475 | 0.118
